In general, EC50 refers to the midpoint of the concentration-response curve.

In data set [1] the test system is ACAT activity in the brain. Description: ACAT inhibition in mouse tissues after single IV of stealth nanoparticles. Format: in vivo, mice. The method, then:
Shown is the efficacy of F12511 vs. F24 encapsulated in nanoparticle and IV delivered to mice. Four hours after IV, various tissues were isolated to monitor ACAT inhibition measurement. Mice were perfused before brains were isolated. N=2-3 WT mice/group. Statistical analysis, 2-way ANOVA. **P<0.01; ***P<0.001.
Nanoparticle Formation. Nanoparticles were prepared according to a general method (Gülçür, et al. (2013) Drug Deliv. Transl. Res. 3(6):562-574; Jhaveri & Torchilin (2014) Front. Pharmacol. 5:77) with modifications. Using a clean glass tube (9 mL capacity), 60 mg of DSPE-PEG2000 (Laysan Bio, Inc (mPEG-DSPE, MW 2,000)) was dissolved in 500 μL of ethanol (EtOH) for a working concentration of 60 mM. […]
Nanoparticle Analysis. […] The content of compound was determined by extrapolation from a standard curve of a concentration gradient of the respective compound produced in the same TLC plate. The plate was stained with iodine and quantified using ImageJ. The TLC/iodine stain method detected compound, and DSPE-PEG2000/PC separately, thus allowing for encapsulation efficiency determination.
Delivery of F24 in Mice via Nanoparticles. […] Four hours after IV delivery, different tissues were isolated and the percent of ACAT inhibition was assessed.

The next data set deals with T1, human ACAT1 (Homo sapiens, UniProt P35610).
T1 sequence (P35610 1-550): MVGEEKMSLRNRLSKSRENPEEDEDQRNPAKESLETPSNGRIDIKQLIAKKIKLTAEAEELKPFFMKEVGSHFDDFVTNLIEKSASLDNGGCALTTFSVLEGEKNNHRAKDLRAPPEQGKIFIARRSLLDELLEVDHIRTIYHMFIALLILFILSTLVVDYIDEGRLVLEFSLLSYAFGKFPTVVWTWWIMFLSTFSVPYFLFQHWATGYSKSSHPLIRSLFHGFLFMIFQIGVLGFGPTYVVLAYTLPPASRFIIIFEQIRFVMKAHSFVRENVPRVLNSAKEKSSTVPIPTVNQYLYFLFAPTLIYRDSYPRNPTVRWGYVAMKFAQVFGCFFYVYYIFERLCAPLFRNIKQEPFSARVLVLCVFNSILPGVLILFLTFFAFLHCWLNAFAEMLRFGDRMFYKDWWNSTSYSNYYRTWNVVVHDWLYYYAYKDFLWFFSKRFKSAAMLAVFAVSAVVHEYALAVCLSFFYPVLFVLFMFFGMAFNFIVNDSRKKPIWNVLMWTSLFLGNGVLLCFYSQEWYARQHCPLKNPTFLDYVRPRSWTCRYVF
Put plainly: Cholesteryl [3H]-oleate formation in CHO cells stably expressing human ACAT1.

For the next data set, the target named is T2, human ACAT2 (Homo sapiens, UniProt O75908).
T2 sequence (O75908 1-522): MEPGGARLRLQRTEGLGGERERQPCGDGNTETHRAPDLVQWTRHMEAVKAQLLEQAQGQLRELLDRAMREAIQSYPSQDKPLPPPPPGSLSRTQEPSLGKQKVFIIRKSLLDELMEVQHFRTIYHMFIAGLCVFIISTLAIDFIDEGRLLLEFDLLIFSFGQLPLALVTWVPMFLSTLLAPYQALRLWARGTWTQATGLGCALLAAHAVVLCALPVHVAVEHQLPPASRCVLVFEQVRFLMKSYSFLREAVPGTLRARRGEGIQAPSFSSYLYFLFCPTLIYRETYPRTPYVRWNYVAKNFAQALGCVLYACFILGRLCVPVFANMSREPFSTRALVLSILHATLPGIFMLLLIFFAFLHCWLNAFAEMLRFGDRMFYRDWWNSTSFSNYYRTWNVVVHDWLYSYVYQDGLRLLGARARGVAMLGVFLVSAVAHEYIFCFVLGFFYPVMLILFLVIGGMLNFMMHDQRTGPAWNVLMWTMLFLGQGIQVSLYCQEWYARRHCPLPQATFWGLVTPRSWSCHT
Description: Cholesteryl [3H]-oleate formation in CHO cells stably expressing human ACAT2.

Description for human ACAT1: (§1) Cells were placed in 10% serum for two days at 37° C. and further incubated with various concentrations of F24 as a stock solution in DMSO for 2 hours. Subsequently, a complex of [3H]-oleic acid and BSA (serving as precursor of oleyl CoA as substrate of ACAT) was fed to the cells for 2 hours. Cells were extensively washed and cellular lipids were extracted with organic solvents. Radioactivity of cholesteryl [3H]-oleate was separated by thin-layer chromatography and determined by scintillation counting.
Description for human ACAT2: as §1

Regarding `CCCCCCCCCCCCSC(C(=O)Nc1c(SC)cc(C)nc1SC)c1ccccc1` (stereo not shown) [F24], in data set [1] (adult C57BL/6 mice, single IV of nanoparticle F24 at low dose 0.9 mM, four hours after IV, brain), the ACAT inhibition stood at 70%. Further, the brain permeability entry in data set [1] (mice, delivered IV via stealth nanoparticle) is “brain-permeable”. Moreover, the values for the EC50 at human ACAT1 and at human ACAT2 were 6 nM and 11 nM, respectively. Besides, on human ACAT1 (ratio of EC50 values, 6 nM vs. 39 nM), the “fold more potent than F12511 in inhibiting ACAT1” value is on record as “seven-fold”. Also, the “fold more potent than F12511 in inhibiting human ACAT2” value at human ACAT2 (ratio of EC50 values, 11 nM vs. 55 nM) is reported as “five-fold”.

`CCCCCCCCCCCCS[C@H](C(=O)Nc1cc(C)c(O)c(C)c1C)c1ccccc1` [F12511, reference compound] came in with an EC50 on human ACAT2 of 55 nM.

For the origin of these results see patent publication US20240325359A1, “ACAT1 INHIBITOR AND METHOD OF USE IN THE TREATMENT OF DISEASE” (Trustees of Dartmouth College, priority 2023, published 2024).
